The test relates to C. parvum strain UGA1. Kind of test: C. parvum growth inhibition assay (Nluc luminescence in HCT-8 cells). The class given is cell-based, Cryptosporidium parvum. The following applies: Cryptosporidium parvum; for inhibition at 1 µM / inhibition at 10 µM: HCT-8; for inhibition at 1 µM: read-out: % inh @ 1 uM C. parvum; for inhibition at 10 µM: read-out: % inh @ 10 uM C. parvum; for EC50: HCT-8, 48 h, C. parvum growth inhibition in HCT-8 cells, 48 hours, 6 concentrations 10-0.04 μM. How it is done:
C. parvum GROWTH INHIBITION ASSAYS
C. parvum growth inhibition was performed as described in Hulverson M A, Vinayak S, Choi R, Schaefer D A, Castellanos-Gonzalez A, Vidadala R S R, Brooks C F, Herbert G T, Betzer D P, Whitman G R, Sparks H N, Arnold S L M, Rivas K L, Barrett L K, White A C Jr, Maly D J, Riggs M W, Striepen B, Van Voorhis W C, Ojo K K. Bumped-Kinase Inhibitors for Cryptosporidiosis Therapy. J Infect Dis. 2017 Apr. 15; 215(8):1275-1284.
C. parvum strain UGA1 […] (ATCC, Manassas, VA) were prepared as described below. HCT-8 cells were inoculated onto 96-well plates were grown for 48 hours to 90%-100% confluence. C. parvum oocysts were then incubated for 10 minutes in 10% bleach at room temperature and washed with Dulbecco's phosphate-buffered saline. One thousand oocysts per well were applied to plates with Roswell Park Memorial Institute 1640 (RPMI) medium supplemented with 10% horse serum and 1% penicillin/streptomycin. Compounds of Formula (I), Formula (II), and Formula (III) were added to the plates at different concentrations and the plates were incubated for 48 hours. Following the incubation, the monolayers were lysed for 1 hour before a luciferase reagent was added, and relative luminescence units were determined.
For certain compounds of Formula I, Formula II, and Formula III, EC50 values were calculated using curves calculated from Prism after analysis of C. parvum growth inhibition at 6 different concentrations: 10, 3.33, 1.11, 0.37, 0.12, and 0.04 μM. […] For certain compounds of Formula I, Formula II, and Formula III, single point inhibition values of 0-33% (activity level D), between 33% and 66% (activity level E), and between 67% and 100% (activity level F) are also shown in Table 1 below.

[1] abbreviates: single point inhibition at 1 uM.
The mark [2] stands for this setting: single point inhibition at 10 uM.
[3] abbreviates: single point inhibition @ 10 uM.

Read-outs that look alike come from different tables or passages of the source. Where only a bound is given, the exact number is not on record here.

As for `COc1nccc(-c2cc3cnc(NC(=O)CC4COC4)cc3[nH]2)n1` [Example 227, N-(2-(2-methoxypyrimidin-4-yl)-1H-pyrrolo[3,2-c]pyridin-6-yl)-2-(oxetan-3-yl)acetamide], under setting [1], the inhibition at 1 µM lay in the range of 0 to 33%. Besides, the inhibition at 10 µM under setting [2] lay in the range of 33 to 66%.

For `CCOc1nccc(-c2cc3cnc(NC(=O)c4cnn(C)c4)cc3n2CC(C)C)n1` [Example 316, N-(2-(2-ethoxypyrimidin-4-yl)-1-isobutyl-1H-pyrrolo[3,2-c]pyridin-6-yl)-1-methyl-1H-pyrazole-4-carboxamide], the inhibition at 1 µM under setting [1] is 0 to 33%. Also, under setting [2], the inhibition at 10 µM lay within 0 to 33%.

For `CCOc1nccc(-c2cc3cnc(NC(=O)c4cn(CCO)nc4C)cc3[nH]2)n1` [Example 233, N-(2-(2-ethoxypyrimidin-4-yl)-1H-pyrrolo[3,2-c]pyridin-6-yl)-1-(2-hydroxyethyl)-3-methyl-1H-pyrazole-4-carboxamide], the inhibition at 1 µM under setting [1] lay in the range of 0 to 33%. Further, the inhibition at 10 µM under setting [2] fell in the range of 33 to 66%.

For the compound `CC(C)n1cc(C(=O)Nc2cc3c(cn2)cc(-c2ccnc(NCC(F)F)n2)n3C)cn1` [Example 169, N-(2-(2-(2,2-difluoroethylamino)pyrimidin-4-yl)-1-methyl-1H-pyrrolo[3,2-c]pyridin-6-yl)-1-isopropyl-1H-pyrazole-4-carboxamide], the inhibition at 1 µM (single point inhibition @ 1 uM) lay in the range of 0 to 33%. Moreover, under setting [3], the inhibition at 10 µM fell in the range of 67 to 100%.

Regarding `CC(C)n1cc(C(=O)Nc2cc3[nH]c(-c4ccnc(OCC(F)F)n4)cc3cn2)cn1` [Example 173, N-(2-(2-(2,2-difluoroethoxy)pyrimidin-4-yl)-1H-pyrrolo[3,2-c]pyridin-6-yl)-1-isopropyl-1H-pyrazole-4-carboxamide], the inhibition at 1 µM (single point inhibition @ 1 uM) lay in the range of 0 to 33%. Besides, the inhibition at 10 µM under setting [3] was 67 to 100%.

Turning to `Cc1ccnc(-c2cc3cnc(NC(=O)C4CC4)cc3n2C)c1` [Example 73, N-(1-methyl-2-(4-methylpyridin-2-yl)-1H-pyrrolo[3,2-c]pyridin-6-yl)cyclopropanecarboxamide], the 50% effective concentration (EC50) – broadly, the concentration giving half of the maximal effect – is greater than 1 µM.

`CNc1cc2c(cn1)cc(-c1cc(C)ncn1)n2C` [Example 126, N,1-dimethyl-2-(6-methylpyrimidin-4-yl)-1H-pyrrolo[3,2-c]pyridin-6-amine] showed an EC50 greater than 1 µM.

Regarding `Cn1cnc(-c2cc3cnc(NC(=O)C4CC4)cc3[nH]2)n1` [Example 65, N-(2-(1-methyl-1H-1,2,4-triazol-3-yl)-1H-pyrrolo[3,2-c]pyridin-6-yl)cyclopropanecarboxamide], the EC50 is greater than 1 µM.

Regarding `Cc1cc(-c2cc3cnc(NC(=O)C(C)C)cc3n2C)ncn1` [Example 118, N-(1-methyl-2-(6-methylpyrimidin-4-yl)-1H-pyrrolo[3,2-c]pyridin-6-yl)isobutyramide], the EC50 is greater than 1 µM.

The compound `Cn1c(-c2ccnc(NCC(F)(F)F)n2)cc2cnc(NC(C)(C)C)cc21` [Example 384, N-tert-butyl-1-methyl-2-(2-(2,2,2-trifluoroethylamino)pyrimidin-4-yl)-1H-pyrrolo[3,2-c]pyridin-6-amine] yielded an EC50 greater than 1 µM.

For the compound `Cn1cc(-c2cc3cnc(NC(=O)C4CC4)cc3[nH]2)cn1` [Example 210, N-(2-(1-methyl-1H-pyrazol-4-yl)-1H-pyrrolo[3,2-c]pyridin-6-yl)cyclopropanecarboxamide], the inhibition at 1 µM under setting [1] is 0 to 33%. In addition, the inhibition at 10 µM under setting [2] is 67 to 100%.

With `Cn1cc(C(=O)Nc2cc3[nH]c(-c4nc[nH]n4)cc3cn2)cn1` [Example 264, N-(2-(1H-1,2,4-triazol-3-yl)-1H-pyrrolo[3,2-c]pyridin-6-yl)-1-methyl-1H-pyrazole-4-carboxamide], the inhibition at 1 µM under setting [1] is 0 to 33%. Moreover, the inhibition at 10 µM under setting [2] lay within 0 to 33%.

Take `COc1cc(-c2cc3cnc(NC4CCOCC4)cc3n2C)ncn1` [Example 388, 2-(6-methoxypyrimidin-4-yl)-1-methyl-N-(tetrahydro-2H-pyran-4-yl)-1H-pyrrolo[3,2-c]pyridin-6-amine]: the EC50 is greater than 1 µM.
